We go through two compounds from publication PMC3395594, “Rational Engineering of Enzyme Allosteric Regulation through Sequence Evolution Analysis” (PLoS Computational Biology, 2012).

Like-named read-outs stand apart in the source and are kept apart here.

Holding throughout (assay): malachite green phosphate release assay, fit to nonlinear noncompetitive inhibition
Common to all, as to type: biochemical

The target in assay [1] is T1, E. coli FBPase (fructose-1,6-bisphosphatase) (Escherichia coli, UniProt P0A993, K104Q/R132I/Y210F/K218Q).
T1 construct: gene fbp; full-length fbp in pET101/D-TOPO, reverse primer without stop (C-terminal vector tag with polyhistidine, no cleavage told), expressed in E. coli BL21 (DE3), Ni-NTA purified
T1 sequence (P0A993 whole entry K104Q/R132I/Y210F/K218Q): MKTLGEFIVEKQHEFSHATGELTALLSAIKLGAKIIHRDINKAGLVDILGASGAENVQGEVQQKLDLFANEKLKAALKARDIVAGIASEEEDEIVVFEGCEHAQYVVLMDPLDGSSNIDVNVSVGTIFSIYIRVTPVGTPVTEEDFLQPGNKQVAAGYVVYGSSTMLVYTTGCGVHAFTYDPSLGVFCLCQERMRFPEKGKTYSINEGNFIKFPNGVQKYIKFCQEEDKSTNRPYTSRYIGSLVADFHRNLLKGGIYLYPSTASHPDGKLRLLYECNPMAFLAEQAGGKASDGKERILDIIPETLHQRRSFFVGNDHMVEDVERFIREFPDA
As to conditions: allosteric Glc-6-P site; with respect to FBP; noncompetitive; Mg2+; pH 7.5, 25 C.

Assay [2] deals with T2, E. coli FBPase (fructose-1,6-bisphosphatase) (Escherichia coli, UniProt P0A993, Y210F).
T2 construct: gene fbp; full-length fbp in pET101/D-TOPO, reverse primer without stop (C-terminal vector tag with polyhistidine, no cleavage told), expressed in E. coli BL21 (DE3), Ni-NTA purified
T2 sequence (P0A993 whole entry Y210F): as the sequence (P0A993 whole entry K104Q/R132I/Y210F/K218Q) above, with Q104K, I132R, Q218K counted along it
The conditions noted are these: allosteric Glc-6-P site, with respect to FBP, Mg2+, pH 7.5, 25 C.

Assay [3] has as its target T3, E. coli FBPase (fructose-1,6-bisphosphatase) (Escherichia coli, UniProt P0A993, Y210F/K218Q).
T3 construct: gene fbp; full-length fbp in pET101/D-TOPO, reverse primer without stop (C-terminal vector tag with polyhistidine, no cleavage told), expressed in E. coli BL21 (DE3), Ni-NTA purified
As to conditions: allosteric Glc-6-P site, with respect to FBP, Mg2+, pH 7.5, 25 C.

Assay [4] concerns the target T4, E. coli FBPase (fructose-1,6-bisphosphatase) (Escherichia coli, UniProt P0A993).
T4 construct: gene fbp; full-length fbp in pET101/D-TOPO, reverse primer without stop (C-terminal vector tag with polyhistidine, no cleavage told), expressed in E. coli BL21 (DE3), Ni-NTA purified
T4 sequence (P0A993 1-332): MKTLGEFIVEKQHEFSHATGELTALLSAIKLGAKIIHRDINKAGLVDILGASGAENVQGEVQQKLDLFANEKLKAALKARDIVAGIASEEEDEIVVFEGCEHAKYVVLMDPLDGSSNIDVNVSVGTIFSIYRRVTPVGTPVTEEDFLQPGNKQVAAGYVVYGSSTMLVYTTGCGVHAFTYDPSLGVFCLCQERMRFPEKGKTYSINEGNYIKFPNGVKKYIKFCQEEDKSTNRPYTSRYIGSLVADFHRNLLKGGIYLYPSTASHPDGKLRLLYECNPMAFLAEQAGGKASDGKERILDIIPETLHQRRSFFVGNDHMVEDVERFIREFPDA
The text has this: malachite green phosphate release assay, fit to nonlinear noncompetitive inhibition on E. coli FBPase (fructose-1,6-bisphosphatase) | Comparison of inhibition constants of wild-type and mutant FBPase by the allosteric inhibitor, AMP. | Comparison of inhibition constant of wild-type and mutant FBPase by the allosteric inhibitor, Glc-6-P.

Assay [5] has as its target T5, E. coli FBPase (fructose-1,6-bisphosphatase) (Escherichia coli, UniProt P0A993, K218Q).
T5 construct: gene fbp; full-length fbp in pET101/D-TOPO, reverse primer without stop (C-terminal vector tag with polyhistidine, no cleavage told), expressed in E. coli BL21 (DE3), Ni-NTA purified
As to conditions: allosteric Glc-6-P site, with respect to FBP, Mg2+, pH 7.5, 25 C.

Assay [6] has as its target T6, E. coli FBPase (fructose-1,6-bisphosphatase) (Escherichia coli, UniProt P0A993, K104Q/K218Q/R132I/Y210F).
T6 construct: gene fbp; full-length fbp in pET101/D-TOPO, reverse primer without stop (C-terminal vector tag with polyhistidine, no cleavage told), expressed in E. coli BL21 (DE3), Ni-NTA purified

Assay [7] has as its target T7, E. coli FBPase (fructose-1,6-bisphosphatase) (Escherichia coli, UniProt P0A993, K104Q).
T7 construct: gene fbp; full-length fbp in pET101/D-TOPO, reverse primer without stop (C-terminal vector tag with polyhistidine, no cleavage told), expressed in E. coli BL21 (DE3), Ni-NTA purified

The target in assay [8] is T8, E. coli FBPase (fructose-1,6-bisphosphatase) (Escherichia coli, UniProt P0A993, R132I).
T8 construct: gene fbp; full-length fbp in pET101/D-TOPO, reverse primer without stop (C-terminal vector tag with polyhistidine, no cleavage told), expressed in E. coli BL21 (DE3), Ni-NTA purified
T8 sequence (P0A993 whole entry R132I): as the sequence (P0A993 whole entry K104Q/R132I/Y210F/K218Q) above, with Q104K, F210Y, Q218K counted along it

Assay [9] has as its target T9, E. coli FBPase (fructose-1,6-bisphosphatase) (Escherichia coli, UniProt P0A993, K104Q/R132I).
T9 construct: gene fbp; full-length fbp in pET101/D-TOPO, reverse primer without stop (C-terminal vector tag with polyhistidine, no cleavage told), expressed in E. coli BL21 (DE3), Ni-NTA purified

T6 sequence (P0A993 whole entry K104Q/R132I/Y210F/K218Q): as the sequence (P0A993 whole entry K104Q/R132I/Y210F/K218Q) above
T3 sequence (P0A993 whole entry Y210F/K218Q): as the sequence (P0A993 whole entry K104Q/R132I/Y210F/K218Q) above, with Q104K, I132R counted along it
T9 sequence (P0A993 whole entry K104Q/R132I): as the sequence (P0A993 whole entry K104Q/R132I/Y210F/K218Q) above, with F210Y, Q218K counted along it
T7 sequence (P0A993 whole entry K104Q): as the sequence (P0A993 whole entry K104Q/R132I/Y210F/K218Q) above, with I132R, F210Y, Q218K counted along it
T5 sequence (P0A993 whole entry K218Q): as the sequence (P0A993 whole entry K104Q/R132I/Y210F/K218Q) above, with Q104K, I132R, F210Y counted along it

As to `O=P(O)(O)OC[C@H]1OC(O)[C@H](O)[C@@H](O)[C@@H]1O` (stereo partly shown) [Glc-6-P], the Ki (in general, the equilibrium dissociation constant of an inhibitor or competing ligand from its target) in assay [1] is 21100 ± 2900 µM; in assay [2], 13100 ± 2900 µM; in assay [3], 20400 ± 7300 µM; in assay [4] (allosteric Glc-6-P site, with respect to FBP, noncompetitive, Mg2+, pH 7.5, 25 C) it was 800 ± 200 µM; in assay [5] it was 14100 ± 3900 µM.

As to `Nc1ncnc2c1ncn2[C@@H]1O[C@H](COP(=O)(O)O)[C@@H](O)[C@H]1O` [AMP], the Ki came to 1680 ± 299 µM in [6]; 419 ± 54.1 µM in assay [7]; 151 ± 12.9 µM in assay [8]; 1460 ± 215 µM in assay [9]; 10.1 ± 0.8 µM in assay [4].
